The IC50 is the point on the concentration scale where inhibition reaches its midpoint. Higher therefore signals a need for much substance.

Results on one compound are retold here after paper PMC11830721 (Frontiers in Pharmacology, 2025).

Some results are limits rather than exact numbers.

The subject of data set [1] is FLT3 signaling pathway (p-FLT3, p-STAT5, p-ERK) in MV4-11 cells. The experiment in a line: Western blot of FLT3 signaling pathway in MV4-11 cells. Format: cell-based, human. The following applies: 4 h, MV4-11, Western blot quantification. Here is the method: The MV4-11 cell line was subjected to a 4 h exposure to varying concentrations of the FLIN-4 compound. Subsequent to this treatment, cellular lysis was conducted using RIPA lysis buffer (Sigma-Aldrich, United States) to isolate total cellular proteins. Subsequently, protein concentrations were precisely quantified using the BCA protein assay kit (Beyotime, Nantong, China). Western blot analysis was carried out in accordance with established methodologies ([Zhou et al., 2022]). The primary antibodies utilized in this study included: rabbit anti-FLT3 (21049−1-AP, Proteintech Group), rabbit anti-phospho-FLT3 (ab171975, Abcam), rabbit anti-Stat5 (#94205, CST), rabbit anti-Phospho-Stat5 (#4322, CST), rabbit anti-ERK (16443−1-AP, Proteintech Group), rabbit anti-phospho-ERK (28733−1-AP, Proteintech Group), and a rabbit anti-GAPDH antibody (10494−1-AP, Proteintech Group) served as an endogenous loading control.
To elucidate the impact of FLIN-4 on the FLT3 signaling cascade, we conducted a Western blot analysis in MV4-11 cells to evaluate the relative expression levels of pivotal phosphorylated proteins.

The target of another data set is EPHB3 (Homo sapiens, UniProt P54753). Put plainly: SelectScreen kinase selectivity assay. It is filed as biochemical. The following applies: ten-dose 0.25–128 μM. Here is the method:
(§1) Following the standardized kinase activity assay protocol as previously reported, we utilized the SelectScreen Kinase Profiling Service (Thermo Fisher Scientific) to determine the kinase selectivity profile of FLIN-4 ([van der Wel et al., 2020]). Through a ten-dose dilution series ranging from 0.25 μM to 128 μM in dose-response experiments, we precisely measured the inhibitory effect of FLIN-4 on the substrate phosphorylation reactions catalyzed by a panel of kinases, and thus ascertained the half-maximal inhibitory concentrations (IC50) for each kinase.

Another data set concerns the target PDGFRB (Homo sapiens, UniProt P09619). The experiment in a line: SelectScreen kinase selectivity assay. It is filed as biochemical. The following applies: ten-dose 0.25–128 μM. Here is the method:
as §1

For another data set, the target named is MST1R (Homo sapiens, UniProt Q04912). Put plainly: SelectScreen kinase selectivity assay. Format: biochemical. The settings on record: ten-dose 0.25–128 μM. Here is the method: as §1
A further data set addresses AXL (Homo sapiens, UniProt P30530). Put plainly: SelectScreen kinase selectivity assay. It is filed as biochemical. The settings on record: ten-dose 0.25–128 μM. Here is the method:
as §1

The next data set deals with ZAK (Homo sapiens, UniProt Q9NYL2). Put plainly: SelectScreen kinase selectivity assay. The settings on record: ten-dose 0.25–128 μM. It is filed as biochemical. Here is the method:
as §1

The target in a further data set is DDR1 (Homo sapiens, UniProt Q08345). Put plainly: SelectScreen kinase selectivity assay. Format: biochemical. The following applies: ten-dose 0.25–128 μM. Here is the method: as §1
The next data set has as its target FYN (Homo sapiens, UniProt P06241). The experiment in a line: SelectScreen kinase selectivity assay. Format: biochemical. The settings on record: ten-dose 0.25–128 μM. Here is the method:
as §1

The next data set has as its system COLO 829BL cells. Put plainly: MTT assay, COLO 829BL (normal hematopoietic). Format: cell-based. The following applies: 2–64 μM. The text has this: The human AML cell line MV4-11, which bears exclusive FLT3-ITD mutation genes, was purchased from the American Type Culture Collection (ATCC, Manassas, VA, United States), and the AML cell line NB4, a FLT3-wildtype cell line, was obtained from the China Center for Type Culture Collection (CCTCC, Wuhan, China). In addition, the normal hematopoietic cell line was COLO 829BL from ATCC. The cells were maintained in RPMI-1640 medium supplemented with 10% FBS, and 1% penicillin and streptomycin. The cells were cultured in an incubator at 37°C with 5% CO2. […] The high-performance liquid chromatography (HPLC) spectra data for each compound are provided in the (Supplementary Figures S1–S6). The FLT3-ITD mutant protein was purchased from Abcam (Cambridge, United Kingdom).
(§2) The effects of the test compounds on MV4-11, NB4, and COLO 829BL cell lines were quantitatively evaluated according to the methods previously reported ([Zhou et al., 2022]).
Subsequently, to further validate the specificity of FLIN-4 for cells expressing FLT3-ITD, we conducted MTT assays to assess the specificity and cytotoxicity of FLIN-4 within the concentration range of 2–64 μM on NB4 cells (harboring FLT3 wild-type) and COLO 829BL cells (representing normal hematopoietic cells). […]

A further data set addresses 60 non-target kinases. The experiment in a line: SelectScreen kinase selectivity profiling, whole panel. The settings on record: all 60 kinases. It is filed as biochemical. The text has this:
Moreover, we extended the kinase selectivity profiling of FLIN-4 to evaluate its inhibitory activity against 60 non-target kinases.

Another data set deals with MV4-11 cells. Put plainly: MTT anti-proliferation assay, MV4-11. It is filed as cell-based. The settings on record: Homo sapiens, 72-h treatment. Here is the method:
In addition, the normal hematopoietic cell line was COLO 829BL from ATCC. The cells were maintained in RPMI-1640 medium supplemented with 10% FBS, and 1% penicillin and streptomycin. The cells were cultured in an incubator at 37°C with 5% CO2. […] The high-performance liquid chromatography (HPLC) spectra data for each compound are provided in the (Supplementary Figures S1–S6).
as §2

PDGFRB, sequence (P09619 33-1106): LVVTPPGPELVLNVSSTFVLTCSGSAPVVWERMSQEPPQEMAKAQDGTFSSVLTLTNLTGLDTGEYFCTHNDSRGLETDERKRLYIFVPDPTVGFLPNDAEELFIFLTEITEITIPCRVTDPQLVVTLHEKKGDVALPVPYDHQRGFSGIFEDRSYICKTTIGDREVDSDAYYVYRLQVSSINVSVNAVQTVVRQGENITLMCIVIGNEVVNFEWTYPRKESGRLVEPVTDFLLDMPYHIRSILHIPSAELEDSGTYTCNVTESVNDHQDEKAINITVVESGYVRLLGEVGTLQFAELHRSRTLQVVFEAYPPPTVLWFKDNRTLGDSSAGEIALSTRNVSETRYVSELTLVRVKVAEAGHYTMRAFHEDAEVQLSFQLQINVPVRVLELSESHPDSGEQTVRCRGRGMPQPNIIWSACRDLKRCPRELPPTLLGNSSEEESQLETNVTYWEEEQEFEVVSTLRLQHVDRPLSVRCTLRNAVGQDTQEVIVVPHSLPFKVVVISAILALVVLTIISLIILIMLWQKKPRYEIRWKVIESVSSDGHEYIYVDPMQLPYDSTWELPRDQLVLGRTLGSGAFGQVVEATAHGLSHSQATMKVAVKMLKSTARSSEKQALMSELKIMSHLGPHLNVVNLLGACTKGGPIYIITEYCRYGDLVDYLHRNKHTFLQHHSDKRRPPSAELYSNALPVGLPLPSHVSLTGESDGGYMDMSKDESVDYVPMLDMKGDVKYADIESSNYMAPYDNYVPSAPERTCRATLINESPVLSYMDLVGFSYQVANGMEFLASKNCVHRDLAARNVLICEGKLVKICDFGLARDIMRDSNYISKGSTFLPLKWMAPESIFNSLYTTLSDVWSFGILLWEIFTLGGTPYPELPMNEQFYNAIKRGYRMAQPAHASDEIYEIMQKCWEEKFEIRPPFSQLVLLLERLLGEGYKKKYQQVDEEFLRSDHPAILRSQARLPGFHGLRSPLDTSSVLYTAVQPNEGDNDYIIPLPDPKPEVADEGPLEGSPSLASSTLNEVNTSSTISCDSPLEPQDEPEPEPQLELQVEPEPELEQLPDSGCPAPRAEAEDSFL
ZAK, sequence (Q9NYL2 whole entry): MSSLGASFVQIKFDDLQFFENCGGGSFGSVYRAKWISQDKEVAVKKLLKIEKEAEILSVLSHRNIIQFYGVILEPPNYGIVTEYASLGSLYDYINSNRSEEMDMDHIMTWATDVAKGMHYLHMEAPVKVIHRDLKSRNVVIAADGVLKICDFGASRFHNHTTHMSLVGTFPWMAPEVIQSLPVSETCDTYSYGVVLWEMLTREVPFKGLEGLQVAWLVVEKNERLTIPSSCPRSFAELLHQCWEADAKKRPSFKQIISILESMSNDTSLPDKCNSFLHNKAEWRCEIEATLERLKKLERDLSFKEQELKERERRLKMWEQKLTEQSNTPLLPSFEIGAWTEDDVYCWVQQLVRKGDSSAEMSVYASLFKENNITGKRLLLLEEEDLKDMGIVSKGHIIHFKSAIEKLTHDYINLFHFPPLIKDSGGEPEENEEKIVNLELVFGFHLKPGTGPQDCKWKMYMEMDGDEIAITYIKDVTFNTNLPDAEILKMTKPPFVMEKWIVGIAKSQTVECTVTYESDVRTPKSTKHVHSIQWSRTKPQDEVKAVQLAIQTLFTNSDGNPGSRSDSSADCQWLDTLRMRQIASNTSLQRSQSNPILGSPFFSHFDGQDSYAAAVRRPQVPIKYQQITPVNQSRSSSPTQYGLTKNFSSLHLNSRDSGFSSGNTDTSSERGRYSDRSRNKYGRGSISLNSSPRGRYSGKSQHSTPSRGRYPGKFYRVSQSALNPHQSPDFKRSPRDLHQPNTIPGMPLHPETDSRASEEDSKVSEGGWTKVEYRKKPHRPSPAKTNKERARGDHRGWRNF
AXL, sequence (P30530 26-894): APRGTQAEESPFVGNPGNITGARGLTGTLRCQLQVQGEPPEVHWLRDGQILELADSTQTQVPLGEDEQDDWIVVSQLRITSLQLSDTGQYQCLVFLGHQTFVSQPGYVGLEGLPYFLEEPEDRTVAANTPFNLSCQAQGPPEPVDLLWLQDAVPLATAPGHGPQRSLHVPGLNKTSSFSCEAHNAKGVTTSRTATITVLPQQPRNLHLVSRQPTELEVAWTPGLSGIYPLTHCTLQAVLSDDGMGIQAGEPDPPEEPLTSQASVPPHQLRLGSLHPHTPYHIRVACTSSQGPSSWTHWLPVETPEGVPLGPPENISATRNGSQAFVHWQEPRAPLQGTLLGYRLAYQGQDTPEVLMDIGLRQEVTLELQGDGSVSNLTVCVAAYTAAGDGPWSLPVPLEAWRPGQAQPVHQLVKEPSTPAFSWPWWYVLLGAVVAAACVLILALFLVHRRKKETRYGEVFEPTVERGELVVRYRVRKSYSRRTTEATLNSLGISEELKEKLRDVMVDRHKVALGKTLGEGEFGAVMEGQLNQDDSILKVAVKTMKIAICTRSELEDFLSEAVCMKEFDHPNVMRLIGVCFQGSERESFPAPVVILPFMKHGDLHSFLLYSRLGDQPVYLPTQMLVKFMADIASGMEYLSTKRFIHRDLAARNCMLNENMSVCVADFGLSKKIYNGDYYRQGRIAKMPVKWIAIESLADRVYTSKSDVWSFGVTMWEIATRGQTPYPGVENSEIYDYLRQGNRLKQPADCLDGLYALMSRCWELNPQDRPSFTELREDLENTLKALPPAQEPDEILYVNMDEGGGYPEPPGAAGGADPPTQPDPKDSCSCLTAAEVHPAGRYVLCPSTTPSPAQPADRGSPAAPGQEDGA
DDR1, sequence (Q08345 19-913): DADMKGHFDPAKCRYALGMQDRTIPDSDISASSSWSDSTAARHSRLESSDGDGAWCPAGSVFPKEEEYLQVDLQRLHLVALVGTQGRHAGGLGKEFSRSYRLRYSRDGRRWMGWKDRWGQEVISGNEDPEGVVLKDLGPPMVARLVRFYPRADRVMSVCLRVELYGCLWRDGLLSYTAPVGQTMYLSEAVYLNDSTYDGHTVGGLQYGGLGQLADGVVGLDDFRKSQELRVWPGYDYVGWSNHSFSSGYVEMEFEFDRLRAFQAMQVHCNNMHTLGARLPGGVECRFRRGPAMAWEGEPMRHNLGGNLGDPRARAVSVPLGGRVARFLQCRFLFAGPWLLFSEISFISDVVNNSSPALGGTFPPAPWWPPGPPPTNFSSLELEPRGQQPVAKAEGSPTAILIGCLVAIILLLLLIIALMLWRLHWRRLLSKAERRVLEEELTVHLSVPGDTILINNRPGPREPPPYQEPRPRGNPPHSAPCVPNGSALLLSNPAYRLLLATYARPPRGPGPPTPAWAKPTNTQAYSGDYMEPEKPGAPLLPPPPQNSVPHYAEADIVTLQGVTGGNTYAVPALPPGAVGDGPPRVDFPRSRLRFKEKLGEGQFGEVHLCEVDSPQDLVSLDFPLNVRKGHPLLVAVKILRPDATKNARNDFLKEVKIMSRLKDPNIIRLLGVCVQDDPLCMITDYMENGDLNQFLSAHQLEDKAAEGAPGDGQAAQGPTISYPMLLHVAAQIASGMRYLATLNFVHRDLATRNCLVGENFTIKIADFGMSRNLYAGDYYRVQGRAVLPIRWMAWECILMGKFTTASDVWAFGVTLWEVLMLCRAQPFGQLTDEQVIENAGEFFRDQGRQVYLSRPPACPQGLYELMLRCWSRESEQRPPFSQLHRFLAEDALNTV
MST1R, sequence (Q04912 25-1400): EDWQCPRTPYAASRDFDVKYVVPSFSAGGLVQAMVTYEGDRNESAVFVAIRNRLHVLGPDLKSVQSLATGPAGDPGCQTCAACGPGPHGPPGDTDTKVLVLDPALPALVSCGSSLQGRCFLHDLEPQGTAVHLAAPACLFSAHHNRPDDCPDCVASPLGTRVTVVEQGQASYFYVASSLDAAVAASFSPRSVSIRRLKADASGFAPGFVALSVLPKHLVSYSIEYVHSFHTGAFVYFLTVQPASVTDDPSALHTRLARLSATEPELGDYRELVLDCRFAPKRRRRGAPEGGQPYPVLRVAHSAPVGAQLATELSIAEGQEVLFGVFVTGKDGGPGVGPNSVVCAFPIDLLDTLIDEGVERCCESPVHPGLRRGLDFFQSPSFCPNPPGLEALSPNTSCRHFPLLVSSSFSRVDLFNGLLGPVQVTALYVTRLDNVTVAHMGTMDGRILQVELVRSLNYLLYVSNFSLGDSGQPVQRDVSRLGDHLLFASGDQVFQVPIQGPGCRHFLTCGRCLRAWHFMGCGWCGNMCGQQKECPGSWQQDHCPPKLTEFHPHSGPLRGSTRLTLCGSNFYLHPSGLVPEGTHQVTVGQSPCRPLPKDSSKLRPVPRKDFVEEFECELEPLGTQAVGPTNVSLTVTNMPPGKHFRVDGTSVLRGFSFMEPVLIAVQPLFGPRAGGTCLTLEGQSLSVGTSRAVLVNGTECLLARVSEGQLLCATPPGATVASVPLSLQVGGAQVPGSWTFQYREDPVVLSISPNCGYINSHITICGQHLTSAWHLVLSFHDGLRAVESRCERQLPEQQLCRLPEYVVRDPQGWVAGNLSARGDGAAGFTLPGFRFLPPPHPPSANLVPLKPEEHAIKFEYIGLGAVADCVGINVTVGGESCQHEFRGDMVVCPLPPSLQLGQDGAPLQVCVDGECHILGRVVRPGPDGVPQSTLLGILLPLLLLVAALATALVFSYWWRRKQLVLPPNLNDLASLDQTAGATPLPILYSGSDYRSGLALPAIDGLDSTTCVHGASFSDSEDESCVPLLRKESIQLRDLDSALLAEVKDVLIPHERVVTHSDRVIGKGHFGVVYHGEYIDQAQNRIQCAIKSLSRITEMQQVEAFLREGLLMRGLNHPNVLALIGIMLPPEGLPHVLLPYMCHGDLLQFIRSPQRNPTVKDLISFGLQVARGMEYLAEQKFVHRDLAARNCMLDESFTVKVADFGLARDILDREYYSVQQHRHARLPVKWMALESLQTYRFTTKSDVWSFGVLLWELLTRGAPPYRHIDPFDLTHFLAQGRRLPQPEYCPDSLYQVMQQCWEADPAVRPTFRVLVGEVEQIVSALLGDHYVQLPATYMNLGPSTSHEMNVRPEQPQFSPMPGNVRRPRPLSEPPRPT

As for `CCc1nc(C(N)=O)c(Nc2ccc(N3CCC(Nc4ccccc4)CC3)c(OC)c2)nc1NC1CCOC(C(O)CO)C1` (stereo not shown) [FLIN-4], the p-ERK/ERK expression level entry in [1] (3 nM) is “significant diminution”; in data set [1] (30 nM) it was “exacerbated decrease”. Besides, the p-FLT3/FLT3 expression level result is given as “significant diminution” in [1] (3 nM) and “exacerbated decrease” in [1] (30 nM). Also, the results for the p-STAT5/STAT5 expression level result in data set [1] (3 nM) and in data set [1] (30 nM) were “significant diminution” and “exacerbated decrease”, respectively. The IC50 against EPHB3, on PDGFRB, against MST1R, against AXL, at ZAK and against DDR1 was over 10 µM throughout. The IC50 against FYN is over 10 µM; on 60 non-target kinases, over 10 µM; in the data set on MV4-11 cells, 0.00131 ± 6e-05 µM. In addition, the “Survival rate of COLO 829BL cells” value in the data set on COLO 829BL cells is given as “did not induce any significant changes in the survival rates”.
